A short description of series [1]: Viscosity of the mixed composition (Brookfield digital viscometer). In kind it is physicochemical. Particulars: for Viscosity of the mixed composition: acid replacing citric acid in activated flux of Example 1, relative scale; for Viscosity trend versus composition without stabilizing agent: time following mixing.
A short description of series [2]: Stability / pot life of the mixed composition held at room temperature. Particulars: in fluxing component of the two-component composition.
Procedure: The two components were mixed at a proportion of 3.6:1 (by weight). The mixed composition was held at room temperature and its viscosity was measured hourly by Brookfield digital viscometer. Following each viscosity measurement, a line was printed on a glass substrate, the line being 50 mm long, 2 mm wide, and 40 μm thick. The printed ink was then sintered in a forced-air oven at 150° C. and the resistance of the obtained printed line was measured.

For `O=C(O)/C=C\C(=O)O` [Maleic, maleic acid], in series [1], the “Viscosity of the mixed composition” value was 5.
In the case of `CC(=O)O` [Acetic, acetic acid], the “Viscosity of the mixed composition” value in series [1] was 5.
Consider `O=C(O)C(=O)O` [Oxalic, Oxalic acid], for which, in series [1], the “Viscosity behaviour at room temperature following mixing” value is “increased within a few minutes such that it was not suitable for printing” and the “Viscosity of the mixed composition” value was 1.
As to `O=C(O)C(O)C(O)C(=O)O` (stereo not shown) [Tartaric, tartaric acid], the “Viscosity of the mixed composition” value in series [1] worked out at 5.
Regarding `NC(N)=S` [thiourea], the “Effect of the stabilizing agent on pot life” value in series [2] was “extending the pot life”.
As to `CCCCCCCCCCCCS` [dodecanethiol], the “Viscosity trend versus composition without stabilizing agent” value in series [1] was “smaller viscosity increase”.
With `O=C(O)/C=C/C(=O)O` [Fumaric, fumaric acid], the “Viscosity of the mixed composition” value in series [1] turned out to be 1.
For the compound `CCCCCCCCS` [octanethiol], in series [1], the “Viscosity trend versus composition without stabilizing agent” value is “smaller viscosity increase”. Further, the “Effect of the stabilizing agent on pot life” value in series [2] was “extend the pot life”.

The values above are taken from patent US10982109B2, “Two-component printable conductive composition” (PRINTCB LTD., priority 2018, dated 2021).
